≈ marks a conversion by molar mass, not a printed value.
Legend:
[1] = Equilibrium solubility of the compound in phosphate buffer at pH 7.4 after 1 hr; type: physicochemical
[2] = Permeability of the compound assessed as passive diffusion from donor compartment to acceptor compartment after 18 hrs by PAMPA assay; type: physicochemical; settings: read-out: Peff
[3] = Permeability of the compound assessed as membrane drug retention after 18 hrs by PAMPA assay; type: physicochemical; design: concentration or dose not given beside the values
[4] = tested on: Liver microsome; experiment: Metabolic stability in human liver microsomes assessed as cytochrome-mediated metabolism after 30 mins by HPLC-MS/MS analysis; type: ADME; settings: 0.5 h
[5] = tested on: Influenza A virus; type: functional, organism-based; settings: A/Puerto Rico/8/1934(H1N1), MDCK, 48 h
[6] = Cytotoxicity against human HEK293T cells assessed as decrease in cell viability by MTT assay; type: cell-based, HEK-293T
[7] = Cytotoxicity against MDCK cells assessed as decrease in cell viability by MTT assay; type: cell-based, Canis lupus familiaris; settings: dog
[8] = tested on: Influenza A virus; type: functional, organism-based; settings: A/Puerto Rico/8/1934(H1N1), MDCK, 48 h; remark: listed apart in the source
[9] = Antiviral activity against Influenza A virus A/Solomon Island/3/06 (H1N1) assessed as reduction in plaque formation after 48 hrs by plaque reduction assay; type: functional, Influenza A virus (A/Solomon Islands/3/2006(H1N1))
[10] = Antiviral activity against Influenza A virus A/Wisconsin/67/05 (H3N2) assessed as reduction in plaque formation after 48 hrs by plaque reduction assay; type: functional, Influenza A virus (A/Wisconsin/67/2005(H3N2))
[11] = tested on: Influenza B virus; experiment: Antiviral activity against Influenza B virus B/Lee/40 assessed as reduction in plaque formation after 48 hrs by plaque reduction assay; type: functional, organism-based; settings: B/Lee/1940, 48 h
[12] = tested on: Influenza B virus; experiment: Antiviral activity against Influenza B virus B/Malaysia/2506/04 assessed as reduction in plaque formation after 48 hrs by plaque reduction assay; type: functional; settings: B/Malaysia/2506/2004, 48 h
[13] = tested on: Influenza B virus; experiment: Antiviral activity against Influenza B virus B/Bangladesh/333/07 assessed as reduction in plaque formation after 48 hrs by plaque reduction assay; type: functional, organism-based; settings: B/Bangladesh/333/07, 48 h
[14] = target: PA/PB1 (Influenza A virus (A/Puerto Rico/8/1934(H1N1)), UniProt P03431+P03433)

Compound `CCCOc1ccc(C(=O)Nc2nc3n(n2)C(c2ccccc2)C=C(C)N3)cc1` (stereo not drawn) has a solubility thermodynamic at 1 h [1] of 13 µg/mL (≈ 33.4 µM), a Papp at 18 h [2] of 2.93 ×10⁻⁶ cm/s and an Activity [3] of 41%. The Drug metabolism [4] was “metabolite_notdetected”, the EC50 [5] was 47 µM and the CC50 [6] was over 250 µM. For the same compound, the CC50 [7] was over 230 µM, the EC50 [8] was 47 µM and the EC50 [9] was 27 µM. For the same compound, the EC50 [10] was 37 µM, the EC50 [11] was 51 µM and the EC50 [12] was 32 µM. It also gave an EC50 [13] of 27 µM and an IC50 [14] of 40 µM.
Compound `CSCC[C@H](N)C(=O)N[C@@H](CC(=O)O)C(=O)N[C@H](C(=O)N[C@@H](CC(N)=O)C(=O)N1CCC[C@H]1C(=O)N[C@H](C(=O)N[C@@H](CC(C)C)C(=O)N[C@@H](CC(C)C)C(=O)N[C@@H](Cc1ccccc1)C(=O)N[C@@H](CC(C)C)C(=O)N[C@@H](CCCCN)C(=O)N[C@H](C(=O)N1CCC[C@H]1C(=O)N[C@@H](C)C(=O)N[C@@H](CCC(N)=O)C(=O)O)C(C)C)[C@@H](C)O)C(C)C` has a CC50 [6] of over 100 µM.
For `CC1=CC(c2ccccc2)n2nc(NC(=O)c3ccc(F)cc3)nc2N1` (stereo not drawn), the Drug metabolism [4] was “metabolite_notdetected”, the EC50 [5] was over 100 µM and the CC50 [6] was 190 µM. For the same compound, the CC50 [7] was over 250 µM and the IC50 [14] was 138 µM.
`Cc1cc(-c2ccccc2)nc2nc(NC(=O)c3ccccc3)nn12` showed a solubility thermodynamic at 1 h [1] of 13 µg/mL (≈ 39.5 µM), a Papp at 18 h [2] of 5.49 ×10⁻⁶ cm/s and an Activity [3] of 2%. The Drug metabolism [4] was “metabolite_notdetected”, the EC50 [5] was 25 µM and the CC50 [6] was 196 µM. For the same compound, the CC50 [7] was over 250 µM, the EC50 [8] was 25 µM and the EC50 [9] was 27 µM. It also gave an EC50 [10] of 24 µM, an EC50 [11] of 25 µM and an EC50 [12] of 36 µM. The EC50 [13] was 34 µM and the IC50 [14] was 26 µM.
Work on `NC(=O)c1c(NC(=O)c2nc3nc(-c4ccccc4)cc(C(F)(F)F)n3n2)sc2c1CCCC2` yielded a CC50 [6] of over 250 µM and an IC50 [14] of 7.5 µM.
With `COc1ccc(C(=O)Nc2nc3nc(C)cc(-c4ccccc4)n3n2)cc1` the Drug metabolism [4] was “metabolite_notdetected”, the EC50 [5] was 86 µM and the CC50 [6] was 187 µM. It also gave a CC50 [7] of over 250 µM and an IC50 [14] of over 200 µM.
In the case of `COc1ccccc1C(=O)Nc1nc2n(n1)C(c1ccccc1)C=C(C)N2` (stereo not drawn), the Drug metabolism [4] is reported as “metabolite_notdetected”, the EC50 [5] is reported as over 100 µM and the CC50 [6] is reported as 240 µM. The CC50 [7] was over 250 µM and the IC50 [14] was over 200 µM.
For `COc1cccc(C(=O)Nc2nc3n(n2)C(c2ccccc2)C=C(C)N3)c1` (stereo not drawn), the Drug metabolism [4] was “metabolite_notdetected”, the EC50 [5] was over 100 µM and the CC50 [6] was 230 µM. It also gave a CC50 [7] of over 250 µM and an IC50 [14] of 175 µM.
Compound `NC(=O)c1c(NC(=O)c2cnn3c(C(F)F)cc(-c4ccccc4)nc23)sc2c1CCC2` has a CC50 [6] of over 1000 µM and an IC50 [14] of 25.4 µM.
In the case of `COc1ccc(C(=O)Nc2nc3nc(-c4ccccc4)cc(C)n3n2)cc1`, the Drug metabolism [4] is reported as “metabolite_notdetected”, the EC50 [5] is reported as over 100 µM and the CC50 [6] is reported as 109 µM. It also gave a CC50 [7] of over 250 µM and an IC50 [14] of 150 µM.
For `CC1=CC(c2ccccc2)n2nc(NC(=O)c3ccccc3)nc2N1` (stereo not drawn), the Drug metabolism [4] was “metabolite_notdetected”, the EC50 [5] was 100 µM and the CC50 [6] was over 250 µM. It also gave a CC50 [7] of over 250 µM and an IC50 [14] of 100 µM.
In the case of `CCCCOc1ccc(C(=O)Nc2nc3n(n2)C(c2ccccc2)C=C(C)N3)cc1` (stereo not drawn), the Drug metabolism [4] is reported as “metabolite_notdetected”, the EC50 [5] is reported as 100 µM and the CC50 [6] is reported as over 250 µM. It also gave a CC50 [7] of over 196 µM and an IC50 [14] of 37 µM.
With `CC1=CC(c2ccccc2)n2nc(NC(=O)c3ccc(Cl)cc3)nc2N1` (stereo not drawn) the Drug metabolism [4] was “metabolite_notdetected”, the EC50 [5] was over 100 µM and the CC50 [6] was over 250 µM. For the same compound, the CC50 [7] was over 250 µM and the IC50 [14] was 95 µM.
With `CC1=CC(c2ccccc2)n2nc(NC(=O)c3ccc(Oc4ccccc4)cc3)nc2N1` (stereo not drawn) the Drug metabolism [4] was “metabolite_notdetected”, the EC50 [5] was 59 µM and the CC50 [6] was 73 µM. The CC50 [7] was over 180 µM and the IC50 [14] was 156 µM.
`COc1ccc(C(=O)Nc2nc3n(n2)C(c2ccccc2)C=C(C)N3)cc1` (stereo not drawn) showed a solubility thermodynamic at 1 h [1] of 13 µg/mL (≈ 36 µM), a Papp at 18 h [2] of 3.52 ×10⁻⁶ cm/s and an Activity [3] of 57%. For the same compound, the Drug metabolism [4] was “metabolite_notdetected”, the EC50 [5] was over 100 µM and the CC50 [6] was over 250 µM. It also gave a CC50 [7] of over 240 µM and an IC50 [14] of 153 µM.
In the case of `Cc1cc(-c2ccccc2)nc2nc(C(=O)Nc3sc4c(c3C(N)=O)CCCCC4)nn12`, the Activity [3] is reported as 99%, the Drug metabolism [4] is reported as “metabolite_notdetected” and the EC50 [5] is reported as 49 µM. The CC50 [6] was over 250 µM, the CC50 [7] was over 250 µM and the EC50 [8] was 8 µM. It also gave an EC50 [9] of 16 µM, an EC50 [10] of 14 µM and an EC50 [11] of 5 µM. For the same compound, the EC50 [12] was 11 µM, the EC50 [13] was 12 µM and the IC50 [14] was 28 µM.
With `CC1=CC(c2ccccc2)n2nc(NC(=O)c3ccc4ccccc4c3)nc2N1` (stereo not drawn) the Drug metabolism [4] was “metabolite_notdetected”, the EC50 [5] was 41 µM and the CC50 [6] was 154 µM. For the same compound, the CC50 [7] was over 115 µM and the IC50 [14] was over 200 µM.
In the case of `CCCOc1ccc(C(=O)Nc2nc3nc(-c4ccccc4)cc(C)n3n2)cc1`, the Drug metabolism [4] is reported as “metabolite_notdetected”, the EC50 [5] is reported as over 100 µM and the CC50 [6] is reported as 52 µM. It also gave a CC50 [7] of over 247 µM and an IC50 [14] of 158 µM.

— ChEMBL document CHEMBL3576796, “A Broad Anti-influenza Hybrid Small Molecule That Potently Disrupts the Interaction of Polymerase Acidic Protein-Basic Protein 1 (PA-PB1) Subunits” (J Med Chem, 2015)
